{
  "source": "paper PMC11050087",
  "about": "“Polyphenols from Maackia amurensis Heartwood Protect Neuronal Cells from Oxidative Stress and Prevent Herpetic Infection” (International Journal of Molecular Sciences, 2024)",
  "key": {"HSV-1 [1]": {"tested_on": "HSV-1", "experiment": "Virucidal activity, CPE inhibition assay (HSV-1 pretreated with compounds)", "type": "cell-based, HSV-1 strain L2", "procedure": "The antiviral activity of polyphenols from M. amurensis against HSV-1 was assessed using the cytopathic effect inhibition (CPE) assay. To study the inhibitory effect of polyphenolic compounds directly on the HSV-1 virus (direct virucidal activity), the monolayer of Vero cells grown on 96-well plates (1 × 10^4 cells/well) was infected with the virus (100 TCD50/mL), pretreated with different concentrations of polyphenolic compounds.\n(§1) The HSV-1 strain L2 obtained from N.F. Gamaleya Federal Research Centre for Epidemiology and Microbiology (Moscow, Russia) was grown in Vero cells as previously described.\n(§2) We determined the direct inhibitory effect of polyphenolic compounds from M. amurensis heartwood on HSV-1 (virucidal effect). We mixed the virus at an infectious dose (100 TCID50/mL) with polyphenolic compounds (from 0.1 to 100 µg/mL) at a ratio of 1:1 (v/v) and incubated for an hour at 37 °C. Then, we infected the monolayer of Vero cells grown on 96-well plates (1 × 10^4 cells/well) with HSV-1 pretreated with the studied compounds. After 1 h adsorption at 37 °C, the cells were washed with phosphate-buffered saline (PBS) and overlaid by the maintenance medium with 1% FBS. The plates were incubated for 72 h at 37 °C in a CO2-incubator. The cytopathic effect (CPE) inhibition assay and real-time reverse transcription-PCR (RT-PCR) assay were used to evaluate virucidal effect of the tested compounds.\nWe previously described this method in detail in [22]. We performed the MTT assay to evaluate the antiviral activity of polyphenolic compounds. The viral inhibition rate (IR, %) was calculated according to Equation (1):(1) IR, %=Atv−Acv/Acd−Acv×100, where Atv is the absorbance of cells infected with HSV-1 pretreated with the studied compounds,\nWe calculated the selectivity index (SI) as the ratio of CC50 to IC50. Experiments were repeated three times."}, "HSV-1 [2]": {"tested_on": "HSV-1", "experiment": "Virucidal activity, RT-PCR assay (HSV-1 pretreated with compounds)", "type": "cell-based, HSV-1 strain L2", "details": "for Ct: 72 h; for −ΔCt: vs virus control", "procedure": "Vero cells grown on 96-well plates were infected with the virus (100 TCID50/mL), pretreated with polyphenolic compounds at concentrations 0.1, 1 and 10 μg/mL. After 72 h of cell incubation, viral DNA was extracted from the supernatants, and the relative level of HSV-1 DNA was determined using RT-PCR. The effect of polyphenols on the relative level of viral DNA was assessed using the 2^−∆Ct method and reported as fold reduction compared to virus control.\nas §1, §2\nWe performed the RT-PCR assay as we previously described in detail in [22]. Briefly, HSV-1 DNA was extracted after incubation from cell supernatants by using the DNA-sorb-AM (K1-12-100-CE) nucleic acid extraction kit (AmpliSens®, Moscow, Russia) according to the manufacturer′s instructions. We treated the supernatants with a lysis solution that contained guanidine chloride (chaotropic agent) in the presence of sorbent (silica particles). As the elution solution was added, the DNA was […] silica particles and separated from the sorbent particles by centrifugation.\nWe detected the DNA of HSV-1 in the obtained samples using the AmpliSens® HSV I, II-FRT-100F PCR kit (AmpliSens®, Moscow, Russia) on a real-time PCR instrument Rotor-Gene Q (Qiagen, Hilden, Nordrhein-Westfalen, Germany) according to the manufacturer′s instructions. The PCR reaction conditions were the following: initial denaturation at 95 °C for 15 min; then 5 cycles at 95 °C for 5 s, at 60 °C for 20 s, at 72 °C for 15 s; then 40 cycles at 95 °C for 5 s, at 60 °C for 20 s, and at 72 °C for 15 s. A negative sample was used as the amplification control for each run. The threshold cycle number Ct, was measured as the PCR cycle, where the amount of the amplified target reached the threshold value; the Ct values ≥ 37 indicated the absence of the HSV-1 DNA in the samples. We assessed the anti-HSV-1 activity of the studied compounds by the reduction in the viral DNA levels using the 2^−ΔCt method according to Equation (2):(2) ΔCt=Ctcv−Cttv where Ct is the threshold cycle number measured as the PCR cycle, where the amount of the amplified target reached the threshold value, […]"}, "[3]": {"experiment": "Cytotoxicity against Vero cells (MTT assay)", "type": "cell-based", "details": "African green monkey", "procedure": "We prepared the stock solutions of the tested compounds (10 mg/mL) in DMSO (Sigma, St. Louis, MO, USA). For the MTT assay and further studies of anti-HSV-1 activity, we diluted the stock solutions with DMEM so that the final concentration of DMSO was 0.5%.\nWe used MTT assay to determine the cytotoxic effect of the tested compounds against Vero cells. We performed the MTT assay as previously described."}, "[4]": {"tested_on": "6-OHDA-treated Neuro-2a cells", "experiment": "Mitochondrial membrane potential detection (TMRM) in 6-OHDA-treated cells", "type": "cell-based, murine", "details": "compound 10 µM; 6-OHDA 120 µM", "procedure": "We determined the effect of polyphenolic compounds from M. amurensis on 6-OHDA-induced mitochondrial dysfunction in Neuro-2a cells (Figure 6a,b).\nFigure 6 The effect of polyphenolic compounds isolated from M. amurensis heartwood on mitochondrial membrane potential in Neuro-2a cells treated with 6-OHDA (120 μM) (a,b). Polyphenolic compounds isolated from M. amurensis heartwood were used at concentrations 10, 1, 0.1 μM. The data are presented as means ± SEM of three independent replicates. (*) and (***) indicate, respectively, p < 0.05 and p < 0.001 versus 6-OHDA-treated cells.\nThe cells were incubated for 1 h in a 96-well plate (1 × 10^4 cells/well) with polyphenolic compounds (0.1, 1 and 10 µM). Then, 6-OHDA (120 µM) was added, and cell suspension was incubated for 1 h. Cells incubated without 6-OHDA and compounds and with 6-OHDA alone were used as positive and negative control, respectively. The tetramethylrhodamine methyl (TMRM) (Sigma-Aldrich, St. Louis, MO, USA) solution (500 nM) was added to each well and cells were incubated for 30 min at 37 °C. The intensity of fluorescence was measured using a PHERAstar FSplate reader (BMG Labtech, Ortenberg, Germany) at λex = 540 nm and λem = 590 nm. The data were processed by MARS Data Analysis v. 3.01R2 (BMG Labtech, Ortenberg, Germany)."}, "[5]": {"tested_on": "6-OHDA-treated Neuro-2a cells", "experiment": "ROS analysis in 6-OHDA-treated cells (H2DCF-DA)", "type": "cell-based, murine", "details": "compound 0.1 µM", "procedure": "We studied the effect of polyphenolic compounds set on ROS levels in 6-OHDA-treated Neuro-2a cells (Figure 5a–d).\nFigure 5 The effect of polyphenolic compounds isolated from M. amurensis heartwood on ROS levels in Neuro-2a cells treated with 6-OHDA (120 μM) (a–d). Polyphenolic compounds isolated from M. amurensis heartwood were used at concentrations 10, 1, 0.1 μM. The data are presented as means ± SEM of three independent replicates.\nAfter 24 h of adhesion, Neuro-2a cells (5 × 10^4 cells/mL) were incubated with polyphenolic compounds at concentrations of 0.1, 1, and 10 µM for 1 h. Then, 120 µM of 6-OHDA or 1 mM of PQ were added to each well, and cells were incubated for 1 h. To study the ROS formation, 20 µL of 2,7-dichlorodihydrofluorescein diacetate solution (H2DCF-DA, Sigma-Aldrich, St. Louis, MO, USA) were added to each well, so that the final concentration was 10 µM. Then, the microplate was incubated for 30 min at 37 °C."}, "[6]": {"tested_on": "6-OHDA-treated Neuro-2a cells", "experiment": "Apoptosis profile by flow cytometry (Annexin V & Dead Cell Kit)", "type": "cell-based, murine", "details": "Table 1; polyphenols 10 µM, 6-OHDA 100 µM, 24 h; mean", "procedure": "We investigated the effect of polyphenolic compounds from M. amurensis on apoptosis profile in 6-OHDA-treated Neuro-2a cells by flow cytometry using fluorescent annexin V conjugate as a fluorescent dye. We observed significant changes in apoptosis profile in Neuro-2a cells after 6-OHDA-treatment. […] Polyphenols 3, 6 and 13 diminished the neurotoxic effect of 6-OHDA-treatment.\nThe cells were incubated for 1 h in a 6-well plate (5 × 10^4 cells/mL) with polyphenolic compounds (10 µM). Then, 6-OHDA (100 µM) was added, and cell suspension was incubated for 24 h. After incubation, the maintenance media was collected, and the cells were washed by cold PBS twice and incubated with trypsin-EDTA solution. The cell suspension was washed with cold PBS twice again, centrifugated and then used for apoptosis detection by Muse® Annexin V & Dead Cell Kit in accordance with the manufacturer’s instructions (Luminex, Austin, TX, USA). The fluorescence was measured with Muse® Cell Analyzer (Luminex, Austin, TX, USA) and the data were processed by Muse 1.5 Analysis software (Luminex, Austin, TX, USA)."}, "[7]": {"details": "Human alphaherpesvirus 1, 72 h, read-out: 2^−ΔCt"}, "[8]": {"details": "Human alphaherpesvirus 1, 72 h, read-out: log10"}},
  "note": "Where “and” joins values, the source holds several entries; their conditions need not be identical. Identical values can stand only once.",
  "data": [
    {"compound": "COc1ccc([C@H]2COc3cc(O)ccc3[C@@H]2c2c(O)cc(O)cc2/C=C/c2ccc(O)c(O)c2)c(O)c1", "note": "[Compound 14, maackiapicevestitol]", "values": [
      {"measurement": "IC50", "setting": "HSV-1 [1]; Human alphaherpesvirus 1, virus pretreated with compound (virucidal), CPE assay, Vero cells, 100 TCID50/mL", "value": "8.6 µg/mL and 16.7 µM"},
      {"measurement": "SI", "setting": "HSV-1 [1]; ratio of CC50 to IC50, virucidal scheme", "value": "18.9 ± 2.8"},
      {"measurement": "Ct", "setting": "HSV-1 [2]; 0.1 µg/mL", "value": "18.4 ± 2.4"},
      {"measurement": "−ΔCt", "setting": "HSV-1 [2]; 0.1 µg/mL", "value": "−0.30 ± 0.03"},
      {"measurement": "Ct", "setting": "HSV-1 [2]; 1 µg/mL", "value": "19.2 ± 2.5"},
      {"measurement": "−ΔCt", "setting": "HSV-1 [2]; 1 µg/mL", "value": "−1.1 ± 0.1"},
      {"measurement": "anti-HSV-1 activity by RT-PCR (in words)", "setting": "HSV-1 [2]; 10 µg/mL", "value": "significantly reduced the level of viral DNA"},
      {"measurement": "Ct", "setting": "HSV-1 [2]; 10 µg/mL", "value": "27.1 ± 3.8"},
      {"measurement": "−ΔCt", "setting": "HSV-1 [2]; 10 µg/mL", "value": "−9.0 ± 1.2"},
      {"measurement": "activity at 0.1 µg/mL", "setting": "HSV-1 [2]; [7]", "value": "81.2 ± 11", "unit": "%"},
      {"measurement": "activity at 1 µg/mL", "setting": "HSV-1 [2]; [7]", "value": "46.6 ± 5.6", "unit": "%"},
      {"measurement": "activity at 10 µg/mL", "setting": "HSV-1 [2]; [7]", "value": "0.195 ± 0.02", "unit": "%"},
      {"measurement": "log reduction at 0.1 µg/mL", "setting": "HSV-1 [2]; [8]", "value": "0.09 ± 0.01"},
      {"measurement": "log reduction at 1 µg/mL", "setting": "HSV-1 [2]; [8]", "value": "0.33 ± 0.04"},
      {"measurement": "log reduction at 10 µg/mL", "setting": "HSV-1 [2]; [8]", "value": "2.7 ± 0.3"},
      {"measurement": "CC50", "setting": "[3]", "value": "162 µg/mL and 316 µM"}
    ]},
    {"compound": "retusin [Compound 3]", "values": [
      {"measurement": "effect on mitochondrial membrane potential (in words)", "setting": "[4]", "value": "weak activity"},
      {"measurement": "inhibition of ROS formation in 6-OHDA-treated Neuro-2a cells (in words)", "setting": "[5]", "value": "considerably inhibited ROS formation"},
      {"measurement": "Dead", "setting": "[6]", "value": "1.18 ± 0.24", "unit": "%"},
      {"measurement": "Early apop.", "setting": "[6]", "value": "19.63 ± 0.79", "unit": "%"},
      {"measurement": "Late apop./Dead", "setting": "[6]", "value": "11.31 ± 0.49", "unit": "%"},
      {"measurement": "Live", "setting": "[6]", "value": "67.89 ± 1.52", "unit": "%"},
      {"measurement": "virucidal activity against HSV-1 (in words)", "setting": "HSV-1 [1]; CPE assay, virus pretreated with compound", "value": "did not show virucidal activity"},
      {"measurement": "virucidal activity against HSV-1 by RT-PCR (in words)", "setting": "HSV-1 [2]; 0.1, 1 and 10 µg/mL", "value": "did not demonstrate virucidal activity"}
    ]}
  ]
}
